This assay concerns the target T1, guinea-pig B2 receptor (Cavia porcellus, UniProt O70526).
T1 construct: Ileum segments are isolated from male guinea-pigs of the Dunkin-Hartley strain; tissue Iffa Credo, l'Arbresle, France (animals); host or cells: ileum membranes of male Dunkin-Hartley guinea-pigs
T1 sequence (O70526 1-372): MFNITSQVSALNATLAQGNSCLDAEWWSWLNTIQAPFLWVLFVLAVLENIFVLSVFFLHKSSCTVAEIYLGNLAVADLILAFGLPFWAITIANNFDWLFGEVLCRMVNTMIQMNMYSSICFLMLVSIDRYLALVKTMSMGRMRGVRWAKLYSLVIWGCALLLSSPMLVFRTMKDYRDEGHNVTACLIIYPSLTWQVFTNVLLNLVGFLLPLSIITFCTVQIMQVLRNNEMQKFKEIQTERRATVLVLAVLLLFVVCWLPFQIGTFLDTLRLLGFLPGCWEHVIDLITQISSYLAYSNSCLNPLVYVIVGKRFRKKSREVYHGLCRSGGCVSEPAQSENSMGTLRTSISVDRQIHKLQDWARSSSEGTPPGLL
The experiment in a line: [3H]-bradykinin binding to guinea-pig ileum membranes. The following applies: test compound 10^-6 M; [3H]-bradykinin 120 pM; 50 μg membrane protein; 90 min at 20° C.; read-out: Activity % (percentage inhibition of the binding of [3H]-bradykinin). The procedure: We used the following pharmacological test: Ileum segments are isolated from male guinea-pigs of the Dunkin-Hartley strain (Iffa Credo, l'Arbresle, France) and ground in the following TES buffer: TES 25 mM, 1,10-phenanthroline 1 mM (pH 6.8), bacitracin 140 μg/ml, BSA 1 g/l. The membranes are then isolated by centrifugation (18,000 rpm; 20 min; 4° C.). The binding studies are carried out in the TES buffer using [^3 H]-bradykinin (120 pM) and 50 μg of membrane protein per test (final volume 500 μl) with an equilibrium time of 90 min at 20° C.

The term inhibition denotes how much of the control response was suppressed.

Each structure is given as a SMILES string. Counter-ions that a name gives are not always drawn.

For `Cc1ccc2cccc(OCc3c(Cl)ccc(S(=O)(=O)N(C)Cc4c[nH]c5ccccc45)c3Cl)c2n1` [Example 7, 2,4-Dichloro-N-methyl-N-[(indol-3-yl)methyl]-3-[(2-methylquinolin-8yl)oxymethyl]benzenesulfonamide], the inhibition at 1 µM was found to be 97.6%.
Consider `Cc1ccc2cccc(OCc3c(Cl)ccc(S(=O)(=O)N(C)Cc4ccc(N)cc4)c3Cl)c2n1` [Example 8, 2,4-Dichloro-N-methyl-N-[(4-aminophenyl)methyl]-3-[(2-methylquinolin-8-yl)oxymethyl]benzenesulfonamide dihydrochloride], for which the inhibition at 1 µM stood at 99.5%.
For `Cc1ccc2cccc(OCc3c(Cl)ccc(S(=O)(=O)N(C)Cc4ccc(O)cc4)c3Cl)c2n1` [Example 9, 2,4-Dichloro-N-methyl-N-[(4-hydroxyphenyl)methyl]-3-[(2-methylquinolin-8-yl)oxymethyl]benzenesulfonamide], the inhibition at 1 µM came to 99.5%.
On to `Cc1ccc2cccc(OCc3c(Cl)ccc(S(=O)(=O)N(C)Cc4cccc(C(N)=O)c4)c3Cl)c2n1` [Example 10, 2,4-Dichloro-N-methyl-N-[[3-(aminocarbonyl)phenyl]methyl]-3[(2-methylquinolin-8-yl)oxymethyl]benzenesulfonamide], for which the inhibition at 1 µM worked out at 99.8%.
For the compound `CNC(=O)c1cccc(CN(C)S(=O)(=O)c2ccc(Cl)c(COc3cccc4ccc(C)nc34)c2Cl)c1` [Example 11, 2,4-Dichloro-N-methyl-N-[[3-(methylaminocarbonyl)phenyl]methyl]-3-[(2-methylquinolin-8-yl)oxymethyl]benzenesulfonamide], the inhibition at 1 µM is 100%.
For the compound `Cc1ccc2cccc(OCc3c(Cl)ccc(S(=O)(=O)N(C)Cc4cccc(C(=O)N(C)C)c4)c3Cl)c2n1` [Example 12, 2,4-Dichloro-N-methyl-N-[[3-[(dimethylamino)carbonyl]phenyl]methyl]-3-[(2-methylquinolin-8-yl)oxymethyl]benzenesulfonamide], the inhibition at 1 µM amounted to 96.9%.
Take `Cc1ccc2cccc(OCc3c(Cl)ccc(S(=O)(=O)N(C)Cc4cccc(C(=O)NCCCO)c4)c3Cl)c2n1` [Example 13, 2,4-Dichloro-N-methyl-N-[[3-[(3-hydroxypropyl)aminocarbonyl]phenyl]-methyl]-3-[(2-methylquinolin-8-yl)oxymethyl]benzenesulfonamide]: the inhibition at 1 µM turned out to be 99.3%.
Regarding `Cc1ccc2cccc(OCc3c(Cl)ccc(S(=O)(=O)N(C)Cc4cccc(C(=O)NCCN(C)C)c4)c3Cl)c2n1` [Example 14, 2,4-Dichloro-N-methyl-N-[[3-[[2-(dimethylamino)ethyl]aminocarbonyl]-phenyl]-methyl]-3-[(2-methylquinolin-8-yl)oxymethyl]benzenesulfonamide], the inhibition at 1 µM was 100%.
Regarding `Cc1ccc2cccc(OCc3c(Cl)ccc(S(=O)(=O)N(C)CCc4ccccc4)c3Cl)c2n1` [Example 15, 2,4Dichloro-N-methyl-N-(2-phenylethyl)-3-[(2-methylquinolin-8-yl)oxymethyl]benzenesulfonamide], the inhibition at 1 µM was 97.9%.
As to `Cc1ccc2cccc(OCc3c(Cl)ccc(S(=O)(=O)N(C)CCCCCCCN)c3Cl)c2n1` [Example 16, 2,4-Dichloro-N-methyl-N-(7-aminoheptyl)-3-[(2-methylquinolin-8-yl)oxymethyl]benzenesulfonamide bis(trifluoroacetate)], the inhibition at 1 µM came to 100%.
On to `CNC(=O)CCCCCN(C)S(=O)(=O)c1ccc(Cl)c(COc2cccc3ccc(C)nc23)c1Cl` [Example 19, 2,4-Dichloro-N-methyl-N-[6-(methylamino)-6-oxohexyl]-3-[(2-methylquinolin-8-yl)oxymethyl]benzenesulfonamide], for which the inhibition at 1 µM was determined as 99%.
For the compound `Cc1ccc2cccc(OCc3c(Cl)ccc(S(=O)(=O)N(C)CCCCCCCCO)c3Cl)c2n1` [Example 20, 2,4-Dichloro-N-methyl-N-(8-hydroxyoctyl)-3-[(2-methylquinolin-8-yl)oxymethyl]benzenesulfonamide], the inhibition at 1 µM came to 95.7%.
Turning to `Cc1ccc2cccc(OCc3c(Cl)ccc(S(=O)(=O)N(C)CCCCCCCCCCCCO)c3Cl)c2n1` [Example 21, 2,4-Dichloro-N-methyl-N-(12-hydroxydodecyl)-3-[(2-methylquinolin-8-yl)oxymethyl]benzenesulfonamide], the inhibition at 1 µM is 94.3%.
Consider `Cc1ccc2cccc(OCc3c(Cl)ccc(S(=O)(=O)N(CCCCN)C(C)(C)C)c3Cl)c2n1` [Example 23, N-(4-Aminobutyl)-N-(1,1-dimethylethyl)-2,4-dichloro-3-[(2-methylquinolin-8-yl)oxymethyl]benzenesulfonamide], for which the inhibition at 1 µM is 92.8%.
Then `CC(=O)NCCCCN(C(C)(C)C)S(=O)(=O)c1ccc(Cl)c(COc2cccc3ccc(C)nc23)c1Cl` [Example 24], with 90.5%; and `Cc1ccc2cccc(OCc3c(Cl)ccc(S(=O)(=O)N(CCCCCCCO)Cc4ccccc4)c3Cl)c2n1` [Example 25, 2,4-Dichloro-N-(phenylmethyl)-N-(7-hydroxyheptyl)-3-[(2-methylquinolin-8-yl]oxymethyl]benzenesulfonamide], with 95.1%; and `CNC(=O)CCCCCCCN(Cc1ccccc1)S(=O)(=O)c1ccc(Cl)c(COc2cccc3ccc(C)nc23)c1Cl` [Example 28, 2,4-Dichloro-N-(phenylmethyl)-N-[8-(methylamino)-8-oxooctyl]-3-[(2-methylquinolin-8-yl)oxymethyl]benzenesulfonamide], with 98%.

The values are drawn from patent publication US5968951A, “Benzenesulfonamide derivatives as bradykinin antagonists” (Fournier Industrie et Sante, priority 1995, dated 1999).
